Measurements reported in patent US5137887A, “Salts of optically active 4-hydroxy-8(3-lower alkoxy-4-phenylsulfinylphenyl)pyrazolo(1,5-A)-1,3,5- triazines and a process for production thereof” (Otsuka Pharmaceutical Factory, Inc., priority 1989, dated 1992).
Like-named read-outs stand apart in the source and are kept apart here.

Experiments:
Solubility test = assay type: physicochemical; conditions: shaken at 25° C., HPLC
Procedure: Solubility tests with the above respective samples using water (distilled water for injection) and physiological saline as solvents were performed as follows.
Using an incubator (Taiyo Kagaku Kogyo, M-100), the tube was shaken at 25° C. After 4 hours, the content was filtered through a 0.45 μm filter and the filtrate was diluted 100-fold with mobile phase to prepare a test solution. Separately, 40.0 mg of Sample I (racemic form) was accurately weighed and made up with water to make exactly 200 ml. Then, 1 ml of this solution was accurately taken and diluted with mobile phase to make exactly 20 ml (10 μg/ml) of standard solution. Using the above test solutions and the standard solution, the solubilities of the respective samples were determined.

[1] = tested on: xanthine dehydrogenase activity in the liver; assay: Xanthine dehydrogenase inhibitory activity test (enzyme activity in liver after oral administration); assay type: in vivo; conditions: male ICR rats, 5 mg/kg orally in 0.5% CMC; for Enzymatic activity in the liver isolated after 4 hr.: liver excised 4 hours after administration; for Enzymatic activity in the liver isolated after 8 hr.: liver excised 8 hours after administration
Procedure: Xanthine dehydrogenase inhibitory activity test
The test was performed using male ICR […] (aged 6 weeks, b.w. 28.0-40.6 g). The compounds of the invention as obtained in Example 2 were respectively suspended in 0.5% carboxymethylcellulose (CMC) solution and the suspensions were administered orally at the rate of 10 ml/kg (Test Group 1 and Test Group 2). The compound of the invention and its dosage used in each test group are shown below.
After 4 and 8 hours from the administration, animals in each group were sacrified, the liver was excised, and the xanthine dehydrogenase activity in the liver was assayed by the following general procedure.
Thus, a homogenate of the liver was diluted 5-fold with 100 mM Tris-HCl buffer (hereinafter referred to merely as buffer). Then, 50 μl of this dilution, 25 μl of a buffer dilution of NAD^+ (20 mM) and 25 μl of a buffer solution of potassium oxonate were added to 300 μl of the buffer (the concentrations of NAD^+ and potassium oxonate in the total solution were 1 mM each) and the mixture was incubated at 25° C. for 5 minutes. This incubate was centrifuged and the uric acid in the supernatant was estimated by high performance liquid chromatography (HPLC). The value was taken as the pre-treatment baseline.
On the other hand, to a preincubate obtained in the same manner as above was added 100 μl of a buffer solution of xanthine (1 mM) and the mixture was incubated at 25° C. for 5 minutes. The reaction was stopped with 50 μl of 6M perchloric acid and the reaction mixture was centrifuged in the same manner as above. The supernatant was neutralized with an aqueous solution of sodium dihydrogen phosphate and uric acid produced was assayed by HPLC. The value was taken as the post-treatment value.
From the difference between the above post-treatment value and pre-treatment baseline value of uric acid, xanthine dehydrogenase activity was determined.

[2] = water, water (distilled water for injection), read-out: Solubility in water
[3] = physiological saline, read-out: Solubility in physiological saline

COc1cc(-c2cnn3c([O-])ncnc23)ccc1[S+]([O-])c1ccccc1.O.[Na+] (racemic) [Sample I, Sodium (±)-8-(3-methoxy-4-phenylsulfinylphenyl)pyrazolo[1,5-a]-1,3,5-triazine-4-olate monohydrate, reference compound]
Solubility in physiological saline (Solubility test; physiological saline, 4 hours, listed as sodium salt of the racemic compound, monohydrate, 240 min): about 0.08 w/w % | Solubility in physiological saline (Solubility test; physiological saline, 4 hours, monohydrate, 240 min): 0.0083 w/w % | Solubility in water (Solubility test; water (distilled water for injection), 4 hours, listed as sodium salt of the above racemic compound, monohydrate, 240 min): about 0.2 w/w % | solubility at 4 h (Solubility test; [2]): 2.21 mg/mL

COc1cc(-c2cnn3c([O-])ncnc23)ccc1[S+]([O-])c1ccccc1.O.O.[Na+] (single isomer, unassigned) [Sample II, Sodium (-)-8-(3-methoxy-4-phenylsulfinylphenyl)pyrazolo[1,5-a]-1,3,5-triazine-4-olate dihydrate]
Enzymatic activity in the liver isolated after 4 hr. ([1]; control 152 ± 21, listed as Test group 1, dihydrate): 7 ± 4 mU/g | Enzymatic activity in the liver isolated after 8 hr. ([1]; control 137 ± 31, listed as Test group 1, dihydrate): 17 ± 7 mU/g | solubility at 4 h (Solubility test; [3]): ≥ 500 mg/mL | solubility at 4 h (Solubility test; [2]): ≥ 500 mg/mL

COc1cc(-c2cnn3c([O-])ncnc23)ccc1[S+]([O-])c1ccccc1.O.O.[Na+] (single isomer, unassigned) [Sample III, Sodium (+)-8-(3-methoxy-4-phenylsulfinylphenyl)pyrazolo[1,5-a]-1,3,5-triazine-4-olate dihydrate]
Enzymatic activity in the liver isolated after 4 hr. ([1]; control 152 ± 21, listed as Test group 2, dihydrate): 33 ± 16 mU/g | Enzymatic activity in the liver isolated after 8 hr. ([1]; control 137 ± 31, listed as Test group 2, dihydrate): 22 ± 10 mU/g

COc1cc(-c2cnn3c(O)ncnc23)ccc1[S+]([O-])c1ccccc1 (single isomer, unassigned) [Sample IV, Calcium bis[(-)-8-(3-methoxy-4-phenylsulfinylphenyl)pyrazolo[1,5-a]-1,3,5-triazine-4-olate] dihydrate]
solubility at 4 h (Solubility test; [3]): ≥ 500 mg/mL | solubility at 4 h (Solubility test; water (distilled water for injection), read-out: Solubility in water): ≥ 500 mg/mL
